PubChem BioAssay (NCI)
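Compound exposure: 48 hours, 5 concentrations, 96-well plates. The concentration for 50% growth inhibition is given as GI50. TGI: total growth inhibition.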

Tests used:
Assay in all cases: NCI-60 cell line screen, 48 h
NCI/ADR-RES ovarian = test system: NCI/ADR-RES ovarian
UO-31 renal = test system: UO-31 renal
COLO 205 colon = test system: COLO 205 colon
ACHN renal = test system: ACHN renal
SNB-19 CNS = test system: SNB-19 CNS
UACC-257 melanoma = test system: UACC-257 melanoma
KM12 colon = test system: KM12 colon
SF-268 CNS = test system: SF-268 CNS
SNB-75 CNS = test system: SNB-75 CNS
SK-MEL-5 melanoma = test system: SK-MEL-5 melanoma
TK-10 renal = test system: TK-10 renal
SK-MEL-2 melanoma = test system: SK-MEL-2 melanoma
HT29 colon = test system: HT29 colon
RXF 393 renal = test system: RXF 393 renal
CCRF-CEM leukemia = test system: CCRF-CEM leukemia
MCF7 breast = test system: MCF7 breast
PC-3 prostate = test system: PC-3 prostate
NCI-H522 lung = test system: NCI-H522 lung
HOP-62 NSCLC = test system: HOP-62 NSCLC
SW-620 colon = test system: SW-620 colon
K-562 leukemia = test system: K-562 leukemia
UACC-62 melanoma = test system: UACC-62 melanoma
T-47D breast = test system: T-47D breast
NCI-H23 lung = test system: NCI-H23 lung
M14 melanoma = test system: M14 melanoma
IGROV1 ovarian = test system: IGROV1 ovarian
NCI-H226 lung = test system: NCI-H226 lung
OVCAR-3 ovarian = test system: OVCAR-3 ovarian
CAKI-1 renal = test system: CAKI-1 renal
SF-539 CNS = test system: SF-539 CNS
EKVX NSCLC = test system: EKVX NSCLC
MDA-MB-231 breast = test system: MDA-MB-231 breast
SN12C renal = test system: SN12C renal
HCT-15 colon = test system: HCT-15 colon
LOX IMVI melanoma = test system: LOX IMVI melanoma
SR leukemia = test system: SR leukemia
OVCAR-8 ovarian = test system: OVCAR-8 ovarian
SK-OV-3 ovarian = test system: SK-OV-3 ovarian
NCI-H460 lung = test system: NCI-H460 lung
HL-60(TB) leukemia = test system: HL-60(TB) leukemia
DU-145 prostate = test system: DU-145 prostate
OVCAR-5 ovarian = test system: OVCAR-5 ovarian
HCC-2998 colon = test system: HCC-2998 colon
MALME-3M melanoma = test system: MALME-3M melanoma
SF-295 CNS = test system: SF-295 CNS
U251 CNS = test system: U251 CNS
MOLT-4 leukemia = test system: MOLT-4 leukemia
RPMI-8226 leukemia = test system: RPMI-8226 leukemia
OVCAR-4 ovarian = test system: OVCAR-4 ovarian
786-0 renal = test system: 786-0 renal
A549 NSCLC = test system: A549 NSCLC
HS 578T breast = test system: HS 578T breast
HCT-116 colon = test system: HCT-116 colon
MDA-MB-435 = test system: MDA-MB-435
A498 renal = test system: A498 renal
HOP-92 NSCLC = test system: HOP-92 NSCLC
SK-MEL-28 melanoma = test system: SK-MEL-28 melanoma
BT-549 breast = test system: BT-549 breast

## Clc1cc(Cl)c(OCCCCCCN2CCNCC2)c(Cl)c1
NCI/ADR-RES ovarian
  GI50: 8.86 µM
  TGI: 26.1 µM
UO-31 renal
  GI50: 2 µM
  TGI: 5.44 µM
COLO 205 colon
  GI50: 1.82 µM
  TGI: 3.58 µM
ACHN renal
  GI50: 2.44 µM
  TGI: 6.11 µM
SNB-19 CNS
  GI50: 3.87 µM
  TGI: 16.3 µM
UACC-257 melanoma
  GI50: 2.77 µM
  TGI: 7.4 µM
KM12 colon
  GI50: 1.8 µM
  TGI: 3.6 µM
SF-268 CNS
  GI50: 5.85 µM
  TGI: 21.1 µM
SNB-75 CNS
  GI50: 2.64 µM
  TGI: 11.7 µM
SK-MEL-5 melanoma
  GI50: 1.66 µM
  TGI: 3.06 µM
TK-10 renal
  GI50: 11.8 µM
  TGI: 24.5 µM
SK-MEL-2 melanoma
  GI50: 5.52 µM
  TGI: 18.1 µM
HT29 colon
  GI50: 1.96 µM
  TGI: 4.3 µM
RXF 393 renal
  GI50: 1.7 µM
  TGI: 5.07 µM
CCRF-CEM leukemia
  GI50: 1.89 µM
  TGI: 4.31 µM
MCF7 breast
  GI50: 1.89 µM
  TGI: 4.2 µM
PC-3 prostate
  GI50: 1.8 µM
  TGI: 4.03 µM
NCI-H522 lung
  GI50: 11.1 µM
  TGI: 25.4 µM
HOP-62 NSCLC
  GI50: 10.6 µM
  TGI: 26 µM
SW-620 colon
  GI50: 1.91 µM
  TGI: 3.75 µM
K-562 leukemia
  GI50: 1.92 µM
  TGI: 4.24 µM
UACC-62 melanoma
  GI50: 2.09 µM
  TGI: 4.27 µM
T-47D breast
  GI50: 2.01 µM
  TGI: 5.06 µM
NCI-H23 lung
  GI50: 7.31 µM
  TGI: 21.8 µM
M14 melanoma
  GI50: 1.84 µM
  TGI: 3.65 µM
IGROV1 ovarian
  GI50: 3.07 µM
  TGI: 8.43 µM
NCI-H226 lung
  GI50: 12.3 µM
  TGI: 30.8 µM
OVCAR-3 ovarian
  GI50: 2.76 µM
  TGI: 9.05 µM
CAKI-1 renal
  GI50: 2.09 µM
  TGI: 6.39 µM
SF-539 CNS
  GI50: 2.27 µM
  TGI: 5.71 µM
EKVX NSCLC
  GI50: 9.45 µM
  TGI: 22.3 µM
MDA-MB-231 breast
  GI50: 2.17 µM
  TGI: 4.53 µM
SN12C renal
  GI50: 6.42 µM
  TGI: 23.6 µM
HCT-15 colon
  GI50: 1.82 µM
  TGI: 4.09 µM
LOX IMVI melanoma
  GI50: 1.75 µM
  TGI: 3.26 µM
SR leukemia
  GI50: 2.16 µM
  TGI: 5.64 µM
OVCAR-8 ovarian
  GI50: 3.36 µM
  TGI: 12.4 µM
SK-OV-3 ovarian
  GI50: 12.9 µM
  TGI: 28.6 µM
NCI-H460 lung
  GI50: 2.03 µM
  TGI: 4.15 µM
HL-60(TB) leukemia
  GI50: 1.86 µM
  TGI: 3.82 µM
DU-145 prostate
  GI50: 4.45 µM
  TGI: 15.9 µM
OVCAR-5 ovarian
  GI50: 2.82 µM
  TGI: 8.42 µM
HCC-2998 colon
  GI50: 2 µM
  TGI: 4.1 µM
MALME-3M melanoma
  GI50: 2.19 µM
  TGI: 5.06 µM
SF-295 CNS
  GI50: 1.81 µM
  TGI: 3.91 µM
U251 CNS
  GI50: 2.3 µM
  TGI: 6.09 µM
MOLT-4 leukemia
  GI50: 2.04 µM
  TGI: 4.88 µM
RPMI-8226 leukemia
  GI50: 2.11 µM
  TGI: 4.62 µM
OVCAR-4 ovarian
  GI50: 3.48 µM
  TGI: 15.1 µM
786-0 renal
  GI50: 1.73 µM
  TGI: 3.24 µM
A549 NSCLC
  GI50: 10.6 µM
  TGI: 25.3 µM
HS 578T breast
  GI50: 3.35 µM
  TGI: 15.2 µM
HCT-116 colon
  GI50: 1.67 µM
  TGI: 3.19 µM
MDA-MB-435
  GI50: 2.02 µM
  TGI: 4.23 µM
A498 renal
  GI50: 9.35 µM
  TGI: 22.6 µM
HOP-92 NSCLC
  GI50: 2.32 µM
  TGI: 7.64 µM
SK-MEL-28 melanoma
  GI50: 2.33 µM
  TGI: 5.68 µM

## COc1ccc(/C=C2\COc3ccc(O)c(O)c3C2=O)c(OC)c1OC
UO-31 renal
  GI50: 1.42 µM
  TGI: 3.02 µM
COLO 205 colon
  GI50: 2.78 µM
  TGI: 10 µM
ACHN renal
  GI50: 1.78 µM
  TGI: 3.96 µM
SNB-19 CNS
  GI50: 3.69 µM
  TGI: 15.7 µM
UACC-257 melanoma
  GI50: 2.88 µM
  TGI: 18.3 µM
KM12 colon
  GI50: 2.89 µM
  TGI: 10.8 µM
SF-268 CNS
  GI50: 3.49 µM
  TGI: 21.3 µM
SNB-75 CNS
  GI50: 3.09 µM
  TGI: 86.6 µM
SK-MEL-5 melanoma
  GI50: 2.25 µM
  TGI: 5.33 µM
TK-10 renal
  GI50: 4.03 µM
  TGI: 23.3 µM
SK-MEL-2 melanoma
  GI50: 4.7 µM
  TGI: 31.1 µM
HT29 colon
  GI50: 3.1 µM
  TGI: 13.8 µM
RXF 393 renal
  GI50: 1.87 µM
  TGI: 3.54 µM
MCF7 breast
  GI50: 2.65 µM
  TGI: 86.5 µM
PC-3 prostate
  GI50: 2.35 µM
  TGI: 61.8 µM
NCI-H522 lung
  GI50: 0.933 µM
  TGI: 3.22 µM
HOP-62 NSCLC
  GI50: 3.12 µM
  TGI: 20 µM
SW-620 colon
  GI50: 2.77 µM
  TGI: 9.53 µM
K-562 leukemia
  GI50: 2.11 µM
  TGI: > 100 µM
UACC-62 melanoma
  GI50: 1.88 µM
  TGI: 3.88 µM
T-47D breast
  GI50: 2.58 µM
  TGI: 9.08 µM
NCI-H23 lung
  GI50: 3.22 µM
  TGI: 14.5 µM
M14 melanoma
  GI50: 2.39 µM
  TGI: 8.93 µM
IGROV1 ovarian
  GI50: 2.09 µM
  TGI: 7.21 µM
NCI-H226 lung
  GI50: 2.66 µM
  TGI: 7.25 µM
OVCAR-3 ovarian
  GI50: 2.94 µM
  TGI: 11.5 µM
CAKI-1 renal
  GI50: 2.42 µM
  TGI: 11.3 µM
SF-539 CNS
  GI50: 2.4 µM
  TGI: 6.87 µM
EKVX NSCLC
  GI50: 3.65 µM
  TGI: 25.8 µM
MDA-MB-231 breast
  GI50: 2.22 µM
  TGI: 7.43 µM
SN12C renal
  GI50: 2.55 µM
  TGI: 8.95 µM
HCT-15 colon
  GI50: 1.74 µM
  TGI: 5.51 µM
LOX IMVI melanoma
  GI50: 1.78 µM
  TGI: 3.49 µM
BT-549 breast
  GI50: 4.03 µM
  TGI: 12 µM
OVCAR-8 ovarian
  GI50: 3.16 µM
  TGI: > 100 µM
SK-OV-3 ovarian
  GI50: 3.24 µM
  TGI: > 100 µM
NCI-H460 lung
  GI50: 2.4 µM
  TGI: 5.75 µM
HL-60(TB) leukemia
  GI50: 2.4 µM
  TGI: 6.71 µM
DU-145 prostate
  GI50: 3.64 µM
  TGI: 26 µM
OVCAR-5 ovarian
  GI50: 3.64 µM
  TGI: 12.8 µM
HCC-2998 colon
  GI50: 2.18 µM
  TGI: 4.48 µM
MALME-3M melanoma
  GI50: 1.77 µM
  TGI: 4.34 µM
SF-295 CNS
  GI50: 8.1 µM
  TGI: > 100 µM
U251 CNS
  GI50: 2.66 µM
  TGI: 11.2 µM
MOLT-4 leukemia
  GI50: 1.87 µM
  TGI: > 100 µM
RPMI-8226 leukemia
  GI50: 0.457 µM
  TGI: 2.95 µM
OVCAR-4 ovarian
  GI50: 2.74 µM
  TGI: 17.8 µM
786-0 renal
  GI50: 2.95 µM
  TGI: 10.7 µM
A549 NSCLC
  GI50: 3.11 µM
  TGI: > 100 µM
HS 578T breast
  GI50: 4.22 µM
  TGI: > 100 µM
HCT-116 colon
  GI50: 1.75 µM
  TGI: 3.96 µM
MDA-MB-435
  GI50: 2.21 µM
  TGI: 6.57 µM
A498 renal
  GI50: 5.54 µM
  TGI: 20.8 µM
HOP-92 NSCLC
  GI50: 2.97 µM
  TGI: 9.91 µM
SK-MEL-28 melanoma
  GI50: 2.63 µM
  TGI: 7.37 µM
